# From paper PMC5285354, “Cationic Net Charge and Counter Ion Type as Antimicrobial Activity Determinant Factors of Short Lipopeptides” (Frontiers in Microbiology, 2017)
# Where a SMILES comes first, the peptide text is derived from it. The star is where a group is joined. Palmitoyl = CCCCCCCCCCCCCCCC(=O)*; Myristoyl = CCCCCCCCCCCCCC(=O)*
# Columns and labels:
# Assay type in all cases: cell-based
# [1] = system: Pseudomonas aeruginosa (ATCC 9027); settings: ATCC 9027, 24 h
# [2] = system: Candida albicans (ATCC 10231)
# [3] = system: Candida tropicalis (PCM 2681); settings: PCM 2681, 48 h
# Procedure, shortened: (§1)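 Lowest lipopeptide concentration (μg/mL) with no observable growth gave the MIC, alongside MBC/MFC, by CLSI microbroth dilution. Fungi: Sabouraud dextrose broth, 10^3 cfu/mL start, 25°C for 48 h; bacteria: MH broth, 10^5 cfu/mL, 37°C for 18 h. Run in triplicate, three separate days.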
# [4] = system: Bacillus subtilis (ATCC 6633); settings: for MIC Bacillus subtillis: ATCC 6633, 18 h; for MBC Bacillus subtillis: ATCC 6633, 24 h
# Procedure, shortened: as §1
# [5] = system: Staphylococcus epidermidis (PCM 2118); settings: for MIC Staphylococcus epidermidis: PCM 2118, 18 h; for MBC Staphylococcus epidermidis: PCM 2118, 24 h
# Procedure, shortened: as §1
# [6] = system: Aspergillus brasiliensis (ATCC 16404); settings: ATCC 16404, 48 h
# Procedure, shortened: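 Broth microdilution per CLSI: Mueller-Hinton broth, 10^5 cfu/mL inoculum, 18 h at 37°C for bacteria; Sabouraud dextrose broth, 10^3 cfu/mL, 48 h at 25°C for fungi. MIC (μg/mL) is the lowest lipopeptide concentration inhibiting visible growth; MBC/MFC also determined. Triplicate on three days.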
# [7] = system: Staphylococcus aureus (ATCC 25923); settings: for MBC Staphylococcus aureus, lipopeptides without TFA counter ion / MIC Staphylococcus aureus / MIC Staphylococcus aureus, lipopeptides without TFA counter ion: ATCC 25923, 18 h; for MBC Staphylococcus aureus: ATCC 25923, 24 h
# Procedure, shortened: as §1
# [8] = system: Escherichia coli (ATCC 25922); settings: for MBC Escherichia coli, lipopeptides without TFA counter ion / MIC Escherichia coli / MIC Escherichia coli, lipopeptides without TFA counter ion: ATCC 25922, 18 h; for MBC Escherichia coli: ATCC 25922, 24 h
# Procedure, shortened: as §1
# [9] = system: Candida albicans (ATCC 10231); settings: ATCC 10231, 48 h
# Procedure, shortened: as §1
# [10] = system: Enterococcus faecalis (ATCC 29212); settings: for MBC Enterococcus fecalis, lipopeptides without TFA counter ion / MIC Enterococcus fecalis / MIC Enterococcus fecalis, lipopeptides without TFA counter ion: ATCC 29212, 18 h; for MBC Enterococcus fecalis: ATCC 29212, 24 h
# Procedure, shortened: as §1
# [11] = system: Pseudomonas aeruginosa (ATCC 9027); settings: ATCC 9027, 18 h
# Procedure, shortened: as §1
# [12] = system: Klebsiella pneumoniae (ATCC 700603); settings: for MBC Klebsiella pneumoniae, lipopeptides without TFA counter ion / MIC Klebsiella pneumoniae / MIC Klebsiella pneumoniae, lipopeptides without TFA counter ion: ATCC 700603, 18 h; for MBC Klebsiella pneumoniae: ATCC 700603, 24 h
# Procedure, shortened: as §1
# [13] = system: Proteus vulgaris (PCM 2668); settings: 18 h
# Procedure, shortened: as §1
# [14] = system: Proteus vulgaris (PCM 2668); settings: 24 h
# human red blood cells = settings: 1 h
# Procedure: The hemolytic activity of the lipopeptides was determined by exposing human red blood cells (4% v/v) to tested compounds at graded concentrations. Red blood cells were obtained from a healthy donor. EDTA was used to prevent the blood clotting. The plasma was removed via centrifugation and the erythrocytes were washed three times with PBS. The red blood cells were suspended in PBS and incubated with different concentrations of lipopeptides at 37°C for 1 h and centrifuged for 5 min at 1000 × g. The supernatants were transferred to a sterile 96-well plate and hemoglobin release was measured with an Epoch microplate spectrophotometer (BioTek, USA) by recording the absorbance at 550 nm. A 0.1% Triton X-100 solution was used as the positive control (100% of hemolysis) and pure PBS as the negative (0% of hemolysis). Minimum hemolytic concentration (MHC) was taken as the lowest concentration which induced 10% of hemolysis.
Compound,MBC Pseudomonas aeruginosa [1] [µg/mL],"MFC Candida albicans, lipopeptides without TFA counter ion [2] [µg/mL]",MFC Candida tropicalis [3] [µg/mL],MIC Candida tropicalis [3] [µg/mL],MIC Bacillus subtillis [4] [µg/mL],MBC Bacillus subtillis [4] [µg/mL],MIC Staphylococcus epidermidis [5] [µg/mL],MBC Staphylococcus epidermidis [5] [µg/mL],MFC Aspergillus brasiliensis [6] [µg/mL],MIC Aspergillus brasiliensis [6] [µg/mL],"MBC Staphylococcus aureus, lipopeptides without TFA counter ion [7] [µg/mL]",MIC Staphylococcus aureus [7] [µg/mL],"MIC Staphylococcus aureus, lipopeptides without TFA counter ion [7] [µg/mL]",MBC Staphylococcus aureus [7] [µg/mL],"MBC Escherichia coli, lipopeptides without TFA counter ion [8] [µg/mL]",MIC Escherichia coli [8] [µg/mL],"MIC Escherichia coli, lipopeptides without TFA counter ion [8] [µg/mL]",MBC Escherichia coli [8] [µg/mL],MFC Candida albicans [9] [µg/mL],MIC Candida albicans [9] [µg/mL],further results
CCCCCCCCCCCCCCCC(=O)N[C@@H](CCCCN)C(=O)NCC(N)=O [C16-KG-NH2] (Palmitoyl-Lys-Gly-NH2),1000,128,512,256,4,4,4,4,512,512,4,8,4,8,256,256,256,256,128,128,"MIC Candida albicans, lipopeptides without TFA counter ion [9]: 128 µg/mL; MBC Enterococcus fecalis, lipopeptides without TFA counter ion [10]: 8 µg/mL; MIC Enterococcus fecalis [10]: 16 µg/mL; MIC Enterococcus fecalis, lipopeptides without TFA counter ion [10]: 4 µg/mL; MBC Enterococcus fecalis [10]: 16 µg/mL; MIC Pseudomonas aeruginosa [11]: 256 µg/mL; MBC Klebsiella pneumoniae, lipopeptides without TFA counter ion [12]: 256 µg/mL; MIC Klebsiella pneumoniae [12]: 128 µg/mL; MIC Klebsiella pneumoniae, lipopeptides without TFA counter ion [12]: 128 µg/mL; MBC Klebsiella pneumoniae [12]: 256 µg/mL; MIC Proteus vulgaris [13]: >512 µg/mL; MBC Proteus vulgaris [14]: >512 µg/mL; Hemolysis HC10 (MHC), concentration of lipopeptide inducing 10% of hemolysis (human red blood cells): 256 µg/mL"
CCCCCCCCCCCCCC(=O)N[C@@H](CCCCN)C(=O)NCC(N)=O [C14-KG-NH2] (Myristoyl-Lys-Gly-NH2),64,256,256,256,16,16,16,16,128,128,32,32,32,32,64,64,64,64,128,128,"MIC Candida albicans, lipopeptides without TFA counter ion [9]: 256 µg/mL; MBC Enterococcus fecalis, lipopeptides without TFA counter ion [10]: 32 µg/mL; MIC Enterococcus fecalis [10]: 32 µg/mL; MIC Enterococcus fecalis, lipopeptides without TFA counter ion [10]: 32 µg/mL; MBC Enterococcus fecalis [10]: 32 µg/mL; MIC Pseudomonas aeruginosa [11]: 32 µg/mL; MBC Klebsiella pneumoniae, lipopeptides without TFA counter ion [12]: 64 µg/mL; MIC Klebsiella pneumoniae [12]: 32 µg/mL; MIC Klebsiella pneumoniae, lipopeptides without TFA counter ion [12]: 32 µg/mL; MBC Klebsiella pneumoniae [12]: 32 µg/mL; MIC Proteus vulgaris [13]: >512 µg/mL; MBC Proteus vulgaris [14]: >512 µg/mL"
CCCCCCCCCCCCCCCC(=O)N[C@@H](CCCCN)C(=O)N[C@@H](CCCCN)C(=O)N[C@@H](CCCCN)C(N)=O [C16-KKK-NH2],8,128,128,128,8,8,4,4,128,128,8,8,4,8,8,8,4,16,128,128,"MIC Candida albicans, lipopeptides without TFA counter ion [9]: 128 µg/mL; MBC Enterococcus fecalis, lipopeptides without TFA counter ion [10]: 8 µg/mL; MIC Enterococcus fecalis [10]: 16 µg/mL; MIC Enterococcus fecalis, lipopeptides without TFA counter ion [10]: 8 µg/mL; MBC Enterococcus fecalis [10]: 16 µg/mL; MIC Pseudomonas aeruginosa [11]: 8 µg/mL; MBC Klebsiella pneumoniae, lipopeptides without TFA counter ion [12]: 4 µg/mL; MIC Klebsiella pneumoniae [12]: 4 µg/mL; MIC Klebsiella pneumoniae, lipopeptides without TFA counter ion [12]: 4 µg/mL; MBC Klebsiella pneumoniae [12]: 4 µg/mL; MIC Proteus vulgaris [13]: >512 µg/mL; MBC Proteus vulgaris [14]: >512 µg/mL"
